Measurements as given in article PMC12586182 (Frontiers in Oncology, 2025).

Legend:
Test in all cases: Kinase panel profiling at 1 µmol/L (mobility shift assay, Carna)
Assay type in all cases: biochemical
Details in all cases: 1 µmol/L of BTK inhibitor
ABL = biological target: T1, ABL (Homo sapiens, UniProt P00519)
T1 construct: purchased Carna Biosciences

FES = biological target: T2, FES (Homo sapiens, UniProt P07332)
T2 construct: purchased Carna Biosciences

FLT1 = biological target: T3, FLT1 (Homo sapiens, UniProt P17948)
T3 construct: purchased Carna Biosciences

HER4 = biological target: T4, HER4 (Homo sapiens, UniProt Q15303)
T4 construct: purchased Carna Biosciences

INSR = biological target: T5, INSR (Homo sapiens, UniProt P06213)
T5 construct: purchased Carna Biosciences

RET = biological target: T6, RET (Homo sapiens, UniProt P07949)
T6 construct: purchased Carna Biosciences

CaMK1δ = biological target: T7, CaMK1δ (Homo sapiens, UniProt Q8IU85)
T7 construct: purchased Carna Biosciences

DYRK3 = biological target: T8, DYRK3 (Homo sapiens, UniProt O43781)
T8 construct: purchased Carna Biosciences
T8 sequence (O43781 1-588): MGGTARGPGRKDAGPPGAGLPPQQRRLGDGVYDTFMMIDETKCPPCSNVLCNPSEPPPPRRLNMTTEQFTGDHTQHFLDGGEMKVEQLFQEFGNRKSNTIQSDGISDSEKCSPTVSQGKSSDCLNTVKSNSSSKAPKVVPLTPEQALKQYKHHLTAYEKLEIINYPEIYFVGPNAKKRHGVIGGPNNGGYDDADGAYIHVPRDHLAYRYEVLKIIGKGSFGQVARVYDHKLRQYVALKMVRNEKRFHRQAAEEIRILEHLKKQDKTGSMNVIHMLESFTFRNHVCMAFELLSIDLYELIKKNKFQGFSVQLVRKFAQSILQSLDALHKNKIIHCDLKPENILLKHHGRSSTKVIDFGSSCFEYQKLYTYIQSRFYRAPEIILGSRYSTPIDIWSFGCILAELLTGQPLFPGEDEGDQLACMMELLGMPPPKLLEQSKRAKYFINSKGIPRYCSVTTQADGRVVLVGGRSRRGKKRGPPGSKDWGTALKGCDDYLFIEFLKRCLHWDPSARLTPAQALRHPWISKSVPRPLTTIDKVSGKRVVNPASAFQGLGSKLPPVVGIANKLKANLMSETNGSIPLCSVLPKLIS

MNK1 = biological target: T9, MNK1 (Homo sapiens, UniProt Q9BUB5)
T9 construct: purchased Carna Biosciences

NEK1 = biological target: T10, NEK1 (Homo sapiens, UniProt Q96PY6)
T10 construct: purchased Carna Biosciences
T10 sequence (Q96PY6 1-1258): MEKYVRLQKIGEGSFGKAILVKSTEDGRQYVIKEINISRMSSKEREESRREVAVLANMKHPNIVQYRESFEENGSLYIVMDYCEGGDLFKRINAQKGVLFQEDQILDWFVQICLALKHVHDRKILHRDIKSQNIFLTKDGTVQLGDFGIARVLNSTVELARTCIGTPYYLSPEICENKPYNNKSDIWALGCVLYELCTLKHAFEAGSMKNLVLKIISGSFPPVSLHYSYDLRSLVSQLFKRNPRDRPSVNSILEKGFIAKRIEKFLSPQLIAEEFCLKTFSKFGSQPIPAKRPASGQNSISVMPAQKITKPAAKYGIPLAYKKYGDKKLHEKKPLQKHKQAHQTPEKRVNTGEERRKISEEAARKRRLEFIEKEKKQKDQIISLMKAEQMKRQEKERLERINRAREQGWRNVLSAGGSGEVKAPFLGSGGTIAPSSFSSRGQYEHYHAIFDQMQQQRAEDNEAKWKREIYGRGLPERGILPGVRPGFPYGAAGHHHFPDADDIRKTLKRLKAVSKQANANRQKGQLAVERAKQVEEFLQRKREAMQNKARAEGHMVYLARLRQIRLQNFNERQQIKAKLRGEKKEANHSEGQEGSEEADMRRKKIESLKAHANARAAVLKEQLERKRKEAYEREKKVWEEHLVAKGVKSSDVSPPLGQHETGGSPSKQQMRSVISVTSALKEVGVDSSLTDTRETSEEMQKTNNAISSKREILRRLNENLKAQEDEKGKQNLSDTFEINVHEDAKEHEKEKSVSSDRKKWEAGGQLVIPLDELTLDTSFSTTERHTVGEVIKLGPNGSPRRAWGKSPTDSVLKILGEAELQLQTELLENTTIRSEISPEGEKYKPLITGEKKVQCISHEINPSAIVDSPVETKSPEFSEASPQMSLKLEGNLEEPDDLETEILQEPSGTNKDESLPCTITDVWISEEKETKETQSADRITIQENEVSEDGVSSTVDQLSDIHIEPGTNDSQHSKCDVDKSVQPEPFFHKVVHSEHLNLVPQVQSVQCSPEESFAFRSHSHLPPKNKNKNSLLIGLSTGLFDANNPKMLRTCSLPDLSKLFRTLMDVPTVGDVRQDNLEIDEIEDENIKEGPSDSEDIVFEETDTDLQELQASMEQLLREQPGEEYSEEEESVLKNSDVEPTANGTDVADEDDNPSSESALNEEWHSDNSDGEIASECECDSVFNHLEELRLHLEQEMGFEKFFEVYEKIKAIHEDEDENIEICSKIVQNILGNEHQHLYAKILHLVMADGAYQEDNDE

NEK7 = biological target: T11, NEK7 (Homo sapiens, UniProt Q8TDX7)
T11 construct: purchased Carna Biosciences

p38α = biological target: T12, p38α (Homo sapiens, UniProt Q16539)
T12 construct: purchased Carna Biosciences

p38β = biological target: T13, p38β (Homo sapiens, UniProt Q15759)
T13 construct: purchased Carna Biosciences

PKACα = biological target: T14, PKACα (Homo sapiens, UniProt P17612)
T14 construct: purchased Carna Biosciences

T1 sequence (P00519 whole entry): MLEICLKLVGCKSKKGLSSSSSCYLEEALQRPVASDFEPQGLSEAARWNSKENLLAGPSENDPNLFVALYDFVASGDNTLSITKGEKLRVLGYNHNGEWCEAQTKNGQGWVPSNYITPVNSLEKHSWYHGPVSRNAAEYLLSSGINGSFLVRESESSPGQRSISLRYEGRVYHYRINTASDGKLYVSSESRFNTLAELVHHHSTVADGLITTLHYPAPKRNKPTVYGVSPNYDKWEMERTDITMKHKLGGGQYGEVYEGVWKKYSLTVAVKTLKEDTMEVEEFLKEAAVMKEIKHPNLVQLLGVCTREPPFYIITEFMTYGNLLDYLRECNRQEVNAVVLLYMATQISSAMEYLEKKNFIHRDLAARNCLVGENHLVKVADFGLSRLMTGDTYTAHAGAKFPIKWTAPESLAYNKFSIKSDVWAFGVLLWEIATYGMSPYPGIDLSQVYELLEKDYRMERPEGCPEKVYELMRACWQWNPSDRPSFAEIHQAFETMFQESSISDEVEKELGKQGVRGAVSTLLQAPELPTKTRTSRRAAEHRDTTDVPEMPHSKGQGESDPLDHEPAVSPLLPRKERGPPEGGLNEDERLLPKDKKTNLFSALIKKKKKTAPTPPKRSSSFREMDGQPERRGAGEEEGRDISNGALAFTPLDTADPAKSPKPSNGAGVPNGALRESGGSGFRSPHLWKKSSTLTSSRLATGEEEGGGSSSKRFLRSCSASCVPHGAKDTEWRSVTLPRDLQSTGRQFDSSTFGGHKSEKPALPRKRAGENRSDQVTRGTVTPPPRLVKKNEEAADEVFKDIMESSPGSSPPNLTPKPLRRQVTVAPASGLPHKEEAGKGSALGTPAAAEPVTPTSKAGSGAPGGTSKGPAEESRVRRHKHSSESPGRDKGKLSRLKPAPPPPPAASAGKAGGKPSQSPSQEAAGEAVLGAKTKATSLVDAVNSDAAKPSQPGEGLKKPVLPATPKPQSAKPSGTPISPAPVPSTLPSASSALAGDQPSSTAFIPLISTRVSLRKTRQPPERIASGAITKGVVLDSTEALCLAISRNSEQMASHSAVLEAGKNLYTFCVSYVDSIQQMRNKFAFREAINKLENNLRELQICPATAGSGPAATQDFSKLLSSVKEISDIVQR
T4 sequence (Q15303 26-1308): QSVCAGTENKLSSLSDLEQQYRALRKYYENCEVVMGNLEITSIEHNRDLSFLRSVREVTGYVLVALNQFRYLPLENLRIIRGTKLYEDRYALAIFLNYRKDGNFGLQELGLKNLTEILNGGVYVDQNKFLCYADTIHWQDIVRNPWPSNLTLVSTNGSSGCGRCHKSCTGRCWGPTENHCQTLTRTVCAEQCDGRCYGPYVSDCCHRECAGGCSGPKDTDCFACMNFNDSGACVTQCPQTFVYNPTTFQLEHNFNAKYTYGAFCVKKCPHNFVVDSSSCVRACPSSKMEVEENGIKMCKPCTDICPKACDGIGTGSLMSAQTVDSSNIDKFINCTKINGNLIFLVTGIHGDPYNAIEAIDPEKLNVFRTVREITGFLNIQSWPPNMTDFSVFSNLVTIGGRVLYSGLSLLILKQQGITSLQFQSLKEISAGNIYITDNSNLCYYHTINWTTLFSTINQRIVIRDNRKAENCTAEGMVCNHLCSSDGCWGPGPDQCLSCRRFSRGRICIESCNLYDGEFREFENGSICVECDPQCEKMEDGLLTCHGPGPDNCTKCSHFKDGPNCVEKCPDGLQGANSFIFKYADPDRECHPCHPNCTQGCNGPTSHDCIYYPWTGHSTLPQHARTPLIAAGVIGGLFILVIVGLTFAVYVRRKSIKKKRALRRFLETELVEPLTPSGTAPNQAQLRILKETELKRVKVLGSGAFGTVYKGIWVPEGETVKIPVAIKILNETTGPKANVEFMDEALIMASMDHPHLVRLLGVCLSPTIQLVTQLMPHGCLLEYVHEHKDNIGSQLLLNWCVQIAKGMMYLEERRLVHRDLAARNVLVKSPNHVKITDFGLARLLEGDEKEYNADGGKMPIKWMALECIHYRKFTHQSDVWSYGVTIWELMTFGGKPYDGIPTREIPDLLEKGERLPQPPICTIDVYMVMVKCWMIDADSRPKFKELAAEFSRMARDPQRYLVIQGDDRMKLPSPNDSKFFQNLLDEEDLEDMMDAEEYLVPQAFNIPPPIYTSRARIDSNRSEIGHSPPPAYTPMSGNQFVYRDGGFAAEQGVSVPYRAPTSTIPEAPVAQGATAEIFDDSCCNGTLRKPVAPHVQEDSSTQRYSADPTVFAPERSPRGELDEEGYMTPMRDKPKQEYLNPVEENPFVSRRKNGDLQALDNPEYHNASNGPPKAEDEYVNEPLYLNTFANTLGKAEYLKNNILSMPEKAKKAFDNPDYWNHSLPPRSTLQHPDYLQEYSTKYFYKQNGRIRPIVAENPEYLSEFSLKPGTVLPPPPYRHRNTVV
T6 sequence (P07949 29-1114): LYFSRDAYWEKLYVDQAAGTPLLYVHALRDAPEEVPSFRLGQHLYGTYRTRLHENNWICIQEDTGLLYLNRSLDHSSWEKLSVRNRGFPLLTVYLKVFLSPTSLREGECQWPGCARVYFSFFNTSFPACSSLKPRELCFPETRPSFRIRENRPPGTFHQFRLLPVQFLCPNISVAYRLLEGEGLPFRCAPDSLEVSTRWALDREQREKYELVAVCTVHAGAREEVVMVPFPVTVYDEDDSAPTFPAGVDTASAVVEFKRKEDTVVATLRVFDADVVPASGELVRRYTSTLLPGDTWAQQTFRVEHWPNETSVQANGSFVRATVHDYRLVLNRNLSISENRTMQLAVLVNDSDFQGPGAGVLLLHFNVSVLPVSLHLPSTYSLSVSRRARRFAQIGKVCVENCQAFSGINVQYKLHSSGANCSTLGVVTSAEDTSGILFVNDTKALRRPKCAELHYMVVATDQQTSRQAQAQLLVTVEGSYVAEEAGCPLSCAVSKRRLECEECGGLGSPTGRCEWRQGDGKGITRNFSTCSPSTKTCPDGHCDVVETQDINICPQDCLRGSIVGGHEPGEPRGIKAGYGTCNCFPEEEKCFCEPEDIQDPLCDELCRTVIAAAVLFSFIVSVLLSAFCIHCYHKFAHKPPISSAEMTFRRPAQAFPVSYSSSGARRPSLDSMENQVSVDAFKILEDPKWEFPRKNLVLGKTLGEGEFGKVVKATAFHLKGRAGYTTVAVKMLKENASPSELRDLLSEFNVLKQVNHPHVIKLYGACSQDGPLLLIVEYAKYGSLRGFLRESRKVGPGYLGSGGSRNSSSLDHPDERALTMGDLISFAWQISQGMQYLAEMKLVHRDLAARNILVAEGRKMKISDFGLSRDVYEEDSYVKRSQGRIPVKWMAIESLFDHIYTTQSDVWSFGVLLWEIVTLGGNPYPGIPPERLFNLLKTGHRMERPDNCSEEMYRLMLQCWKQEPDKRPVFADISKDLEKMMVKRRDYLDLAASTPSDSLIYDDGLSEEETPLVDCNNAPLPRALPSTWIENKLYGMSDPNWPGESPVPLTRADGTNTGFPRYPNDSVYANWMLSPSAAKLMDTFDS
T12 sequence (Q16539 whole entry): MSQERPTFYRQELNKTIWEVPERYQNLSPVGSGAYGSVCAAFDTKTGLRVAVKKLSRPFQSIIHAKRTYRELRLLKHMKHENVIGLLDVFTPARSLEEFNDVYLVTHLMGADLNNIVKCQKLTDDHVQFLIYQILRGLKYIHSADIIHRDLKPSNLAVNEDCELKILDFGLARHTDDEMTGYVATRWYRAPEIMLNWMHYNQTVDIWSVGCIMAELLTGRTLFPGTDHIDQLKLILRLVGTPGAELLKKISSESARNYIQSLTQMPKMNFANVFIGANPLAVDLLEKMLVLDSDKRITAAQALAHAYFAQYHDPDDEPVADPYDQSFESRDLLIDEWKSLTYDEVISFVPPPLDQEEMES
T11 sequence (Q8TDX7 whole entry): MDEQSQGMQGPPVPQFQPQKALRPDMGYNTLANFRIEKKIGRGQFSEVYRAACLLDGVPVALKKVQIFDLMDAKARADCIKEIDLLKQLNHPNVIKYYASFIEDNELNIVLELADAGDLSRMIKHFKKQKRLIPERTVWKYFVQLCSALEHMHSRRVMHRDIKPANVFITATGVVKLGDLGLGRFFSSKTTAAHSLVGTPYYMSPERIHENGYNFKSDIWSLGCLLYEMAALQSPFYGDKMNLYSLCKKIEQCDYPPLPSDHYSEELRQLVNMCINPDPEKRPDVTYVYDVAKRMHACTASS
T9 sequence (Q9BUB5 whole entry): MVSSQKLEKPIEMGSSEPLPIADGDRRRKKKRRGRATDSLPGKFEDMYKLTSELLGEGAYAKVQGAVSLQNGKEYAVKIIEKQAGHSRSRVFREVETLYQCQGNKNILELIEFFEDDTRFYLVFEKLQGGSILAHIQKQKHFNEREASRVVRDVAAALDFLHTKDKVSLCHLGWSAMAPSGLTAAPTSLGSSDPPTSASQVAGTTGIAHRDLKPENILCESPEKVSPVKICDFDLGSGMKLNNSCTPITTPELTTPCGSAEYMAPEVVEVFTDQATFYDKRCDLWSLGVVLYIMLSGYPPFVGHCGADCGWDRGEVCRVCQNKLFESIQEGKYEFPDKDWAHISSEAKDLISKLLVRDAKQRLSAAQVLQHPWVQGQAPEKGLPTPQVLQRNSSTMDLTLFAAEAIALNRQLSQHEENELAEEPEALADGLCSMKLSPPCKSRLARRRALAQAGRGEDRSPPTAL
T13 sequence (Q15759 whole entry): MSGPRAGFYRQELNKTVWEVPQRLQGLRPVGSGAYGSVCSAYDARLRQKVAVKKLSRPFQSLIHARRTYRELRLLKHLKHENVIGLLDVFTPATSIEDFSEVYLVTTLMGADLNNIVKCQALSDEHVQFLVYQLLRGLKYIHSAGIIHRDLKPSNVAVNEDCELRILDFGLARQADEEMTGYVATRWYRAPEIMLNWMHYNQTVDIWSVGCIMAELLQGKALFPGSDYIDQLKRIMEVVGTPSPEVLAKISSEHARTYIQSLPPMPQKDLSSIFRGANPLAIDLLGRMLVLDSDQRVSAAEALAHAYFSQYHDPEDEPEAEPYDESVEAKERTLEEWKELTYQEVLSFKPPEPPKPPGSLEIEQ

| Structure (SMILES) | Percentage inhibition of kinase enzyme activity (ABL) | Percentage inhibition of kinase enzyme activity (FES) | Percentage inhibition of kinase enzyme activity (FLT1) | Percentage inhibition of kinase enzyme activity (HER4) | Percentage inhibition of kinase enzyme activity (INSR) | Percentage inhibition of kinase enzyme activity (RET) | Percentage inhibition of kinase enzyme activity (CaMK1δ) | Percentage inhibition of kinase enzyme activity (DYRK3) | Percentage inhibition of kinase enzyme activity (MNK1) | Percentage inhibition of kinase enzyme activity (NEK1) | Percentage inhibition of kinase enzyme activity (NEK7) | Percentage inhibition of kinase enzyme activity (p38α) | Percentage inhibition of kinase enzyme activity (p38β) | Percentage inhibition of kinase enzyme activity (PKACα) |
| --- | --- | --- | --- | --- | --- | --- | --- | --- | --- | --- | --- | --- | --- | --- |
| CC#CC(=O)N1CCC[C@H]1c1nc(-c2ccc(C(=O)Nc3ccccn3)cc2)c2c(N)nccn12 [acalabrutinib] | -2.81% | -6.35% | -1.14% | 77.61% | -4.67% | 13.72% | -5.01% | 0.35% | 11.59% | -7.46% | -10.68% | -0.75% | -3.08% | -5.14% |
| C=CC(=O)N1CCC([C@@H]2CCNc3c(C(N)=O)c(-c4ccc(Oc5ccccc5)cc4)nn32)CC1 [zanubrutinib] | – | 4.53% | 22.02% | 2.98% | 2.69% | 18.89% | – | – | – | – | – | – | – | – |
| O=C(c1ccc(Oc2ccccc2)cc1Cl)c1c[nH]c2ncnc(N[C@@H]3CC[C@@H](CO)OC3)c12 [nemtabrutinib] | 56.26% | 93.26% | 87.14% | 95.14% | 95.91% | 98.99% | 9.32% | -5.63% | 7.10% | -1.75% | 3.06% | 2.09% | 12.08% | 0.95% |
| COc1ccc(F)cc1C(=O)NCc1ccc(-c2nn([C@@H](C)C(F)(F)F)c(N)c2C(N)=O)cc1 [pirtobrutinib] | 2.26% | 11.87% | 4.85% | 69.88% | 6.62% | 51.77% | 2.74% | 7.54% | 2.15% | -2.24% | -2.19% | -2.18% | 2.61% | -26.62% |
| C=CC(=O)N1CCC[C@@H](n2nc(-c3ccc(Oc4ccccc4)cc3)c3c(N)ncnc32)C1 [ibrutinib] | 7.80% | 0.68% | 72.57% | 98.60% | 9.51% | 87.66% | 4.85% | -3.93% | 14.52% | 3.73% | 0.69% | -2.71% | 9.06% | -10.78% |
